Source: patent publication US5792882A, “Phenoxyphenyl cyclopentenyl hydroxyureas” (Pfizer Inc., priority 1993, dated 1998)

Legend:
5-lipoxygenase (LO) = molecular target: T1, 5-lipoxygenase (LO) (Homo sapiens, UniProt P09917); assay: In vitro assay using heparinized human whole blood (HWB); format: cell-based; conditions: calcium ionophore stimulated, 10 min preincubation at 37° C., read-out: IC50, inhibition of 5-lipoxygenase metabolism of arachidonic acid
T1 construct: Aliquots of heparinized human whole blood (1 ml) from healthy donors; endogenous in cells; host or cells: heparinized human whole blood from healthy donors
T1 sequence (P09917 1-674): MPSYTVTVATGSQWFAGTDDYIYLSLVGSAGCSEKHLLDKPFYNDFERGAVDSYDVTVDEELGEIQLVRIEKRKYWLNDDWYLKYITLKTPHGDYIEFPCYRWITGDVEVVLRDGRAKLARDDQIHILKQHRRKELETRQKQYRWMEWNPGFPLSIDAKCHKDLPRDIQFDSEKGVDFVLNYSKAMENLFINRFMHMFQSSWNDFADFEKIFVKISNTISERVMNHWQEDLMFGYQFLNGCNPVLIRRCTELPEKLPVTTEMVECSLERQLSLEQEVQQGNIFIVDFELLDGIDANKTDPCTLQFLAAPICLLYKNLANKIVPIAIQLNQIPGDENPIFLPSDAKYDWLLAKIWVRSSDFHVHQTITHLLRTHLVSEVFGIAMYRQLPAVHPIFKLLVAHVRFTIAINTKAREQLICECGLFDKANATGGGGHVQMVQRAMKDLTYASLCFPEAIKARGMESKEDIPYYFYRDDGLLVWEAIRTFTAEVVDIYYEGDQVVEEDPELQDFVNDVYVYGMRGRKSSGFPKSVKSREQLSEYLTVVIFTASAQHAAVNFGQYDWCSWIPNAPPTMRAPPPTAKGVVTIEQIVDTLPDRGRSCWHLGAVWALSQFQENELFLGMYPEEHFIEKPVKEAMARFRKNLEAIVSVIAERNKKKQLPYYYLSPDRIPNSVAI
Protocol: 1) In vitro assay using heparinized human whole blood (HWB)
Aliquots of heparinized human whole blood (1 ml) from healthy donors were preincubated with drugs dissolved in dimethyl sulfoxide (final concentration, 0.1%) for 10 min at 37° C., then calcium ionophore […] (60 μM) and Heparapid (2.5%, Sekisui Chemical Co. LTD., Japan) were added and incubations were continued for further 30 min. Reactions were terminated by rapid cooling in an ice bath. Blood-clots induced by Heparapid were removed by centrifugation. Acetonitrile (ACN, 1.5 ml) and PGB2 (200 ng, as internal standard) were added to supernatants. Samples were mixed by Voltex mixer and precipitated proteins were removed by centrifugation. Supernatants were diluted to 15% ACN with water and were loaded onto prewashed Sep-Pak C18 cartridge (Waters Associates, Milford, Miss., USA) and arachidonate metabolites were eluted with 4 ml of 70% methanol. Methanolic extract was evaporated and the residue was then reconstituted in 250 μl of 67% ACN.
ACN reconstituents (100 μl) were injected onto a reversed phase C18 column (Wakosil SC18, 4.6×150 mm, Wako Pure Chemical Industries LTD, Japan). Column temperature was 40° C. HPLC analysis was performed by Hewlett Packard model 1090M HPLC system. The chromatographic was achieved by gradient elution using two different mobile phase ( mobile phase A consisted of 10% ACN, 0.1% trifluoroacetic acid and 0.05% triethylamine; mobile phase B consisted of 80% ACN, 0.1% trifluoroacetic acid and 0.05% triethylamine). Each mobile phase was continuously sparged with helium. The HPLC gradient was programmed as follows (where A+B=100): from 0 to 9.7 min, a linear gradient from 35 to 100% of […] with flow rate of 1 ml/min. Peaks of eluting products were quantitated by UV absorbance (LTB4 and PGB2 at 275 nm; HHT and 5-HETE at 235 nm, respectively) and were corrected by PGB2 recovery. Linear regression was used to estimate IC50 values. […]

[1] = tested on: platelet activating factor (PAF) induced lethality; assay: PAF induced lethality in mice, test compound administered orally; format: in vivo, ICR mice (male); conditions: Mus musculus, oral administration 45 min prior to PAF injection (12 μg/Kg i.v.), mortality 1 hr after PAF
Protocol: 2) In vivo system measuring effects of test compound administered orally against platelet activating factor (PAF) induced lethality in mice
The in vivo potency after oral administration of test compounds to ICR mice (male) was determined using the PAF lethality assay in a similar manner as that described in the following articles: J. M. Young, P. J. Maloney, S. N. Jubb, and J. S. Clark, Prostaglandins, 30, 545 (1985); M. Criscuoli and A. Subissi, Br. J. Pharmac., 90, 203 (1987); and H. Tsunoda, S. Abe, Y. Sakuma, S. Katayama and K. Katayama, Prostaglandins Leukotrienes and Essential Fatty Acids, 39, 291 (1990). PAF was dissolved at a concentration of 1.2 μg/ml in 0.05 mg/ml propranolol-saline containing 0.25% bovine serum albumin (BSA) and injected intravenously into mice at a dose of 12 μg/Kg. Mortality was determined 1 hr after PAF injection. To investigate the effect of 5-LO inhibitors, compounds were dissolved in 5% tween 80, 5% EtOH-saline and administered orally (0.1 ml/10 g) 45 min prior to PAF injection. Linear regression was used to estimate ED50 values.

Row | SMILES | IC50 (5-lipoxygenase (LO)) | ED50 [1]
1 | NC(=O)N(O)C1C=C(c2cccc(Oc3ccc(F)cc3)c2)CC1 (single isomer, unassigned; (+)) [Example 1, (+)-N-[3-[3-(4-Fluorophenoxy)phenyl]-2-cyclopenten-1-yl]-N-hydroxyurea] | ~500 nM | 1 to 10 mg/kg
2 | NC(=O)N(O)C1C=C(c2cccc(Oc3ccc(Cl)cc3)c2)CC1 (single isomer, unassigned; (+)) [Example 3, (+)-N-[3-[3-(4-Chlorophenoxy)phenyl]-2-cyclopenten-1-yl]-N-hydroxyurea] | ~500 nM | 1 to 10 mg/kg
3 | NC(=O)N(O)C1C=C(c2cccc(Oc3ccccc3)c2)CC1 (single isomer, unassigned; (+)) [Example 2, (+)-N-[3-(3-Phenoxyphenyl)-2-cyclopenten-1-yl]-N-hydroxyurea] | ~500 nM | 1 to 10 mg/kg
